Reference: patent US10167284B2, “Spirocyclic compounds as agonists of the muscarinic M1 receptor and/or M4 receptor” (HEPTARES THERAPEUTICS LIMITED, priority 2015, dated 2019)

Experiments:
[1] = biological target: T1, human muscarinic M1 receptor (Homo sapiens, UniProt P11229); test: Alphascreen Surefire phospho-ERK1/2 functional assay, M1; assay type: cell-based; settings: for M1 % Emax cf. ACh / EC50: CHO cells stably expressing human M1; for M1 % Emax cf. ACh / Emax: Emax relative to ACh; for EC50: phospho-ERK1/2, read-out: pEC50 M1 (converted); for Emax: CHO, read-out: M1 % Emax cf. ACh, CHO cells stably expressing human M1
T1 construct: expressed in transfected cells
T1 sequence (P11229 1-460): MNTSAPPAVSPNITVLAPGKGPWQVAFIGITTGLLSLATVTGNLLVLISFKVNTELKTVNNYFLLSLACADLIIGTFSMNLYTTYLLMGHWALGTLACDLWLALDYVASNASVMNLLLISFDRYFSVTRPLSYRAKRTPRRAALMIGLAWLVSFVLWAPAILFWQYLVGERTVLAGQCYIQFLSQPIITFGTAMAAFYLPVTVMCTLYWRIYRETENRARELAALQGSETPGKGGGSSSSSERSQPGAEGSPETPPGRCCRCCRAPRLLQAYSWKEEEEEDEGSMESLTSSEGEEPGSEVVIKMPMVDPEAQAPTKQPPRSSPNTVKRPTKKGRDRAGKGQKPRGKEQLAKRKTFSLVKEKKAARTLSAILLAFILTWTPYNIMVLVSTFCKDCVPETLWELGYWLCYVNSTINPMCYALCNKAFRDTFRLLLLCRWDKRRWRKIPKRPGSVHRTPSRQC
Method: (§1) CHO cells stably expressing the human muscarinic M1, M2, M3 or M4 receptor were plated (25K/well) onto 96-well tissue culture plates in MEM-alpha+10% dialysed FBS. Once adhered, cells were serum-starved overnight. Agonist stimulation was performed by the addition of 5 μL agonist to the cells for 5 min (37° C.). Media was removed and 50 μL of lysis buffer added. After 15 min, a 4 μL sample was transferred to 384-well plate and 7 μL of detection mixture added. Plates were incubated for 2 h with gentle agitation in the dark and then read on a PHERAstar plate reader.
(§2) pEC50 and Emax figures were calculated from the resulting data for each receptor subtype.

[2] = biological target: T2, human muscarinic M4 receptor (Homo sapiens, UniProt P08173); test: Alphascreen Surefire phospho-ERK1/2 functional assay, M4; assay type: cell-based; settings: for M4 % Emax cf. ACh / EC50: CHO cells stably expressing human M4; for M4 % Emax cf. ACh / Emax: Emax relative to ACh; for EC50: phospho-ERK1/2, read-out: pEC50 M4 (converted); for Emax: CHO, read-out: M4 % Emax cf. ACh, CHO cells stably expressing human M4
T2 construct: expressed in transfected cells
T2 sequence (P08173 1-479): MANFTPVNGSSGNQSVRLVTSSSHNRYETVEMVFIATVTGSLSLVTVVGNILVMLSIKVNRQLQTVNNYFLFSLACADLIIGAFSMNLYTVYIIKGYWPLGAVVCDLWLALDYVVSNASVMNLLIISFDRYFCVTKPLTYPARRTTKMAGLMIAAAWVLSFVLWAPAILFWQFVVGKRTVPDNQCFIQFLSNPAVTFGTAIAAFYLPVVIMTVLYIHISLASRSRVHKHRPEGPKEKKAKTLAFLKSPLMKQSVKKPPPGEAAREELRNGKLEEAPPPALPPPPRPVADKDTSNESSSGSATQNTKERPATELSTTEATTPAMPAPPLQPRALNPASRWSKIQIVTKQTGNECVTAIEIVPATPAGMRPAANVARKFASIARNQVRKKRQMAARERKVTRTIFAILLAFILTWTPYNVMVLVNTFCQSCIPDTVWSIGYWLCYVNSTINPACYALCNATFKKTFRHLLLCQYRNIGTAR
Method: as §1, §2

[3] = biological target: T3, human muscarinic M2 receptor (Homo sapiens, UniProt P08172); test: Alphascreen Surefire phospho-ERK1/2 functional assay, M2; settings: for Emax: CHO, read-out: M2 % Emax cf. ACh, CHO cells stably expressing human M2; for Emax / M2 % Emax cf. ACh: Emax relative to ACh; for EC50: pEC50 M2, CHO cells stably expressing human M2; for EC50 / pEC50 M2: phospho-ERK1/2; for M2 % Emax cf. ACh / pEC50 M2: CHO cells stably expressing human M2
T3 sequence (P08172 1-466): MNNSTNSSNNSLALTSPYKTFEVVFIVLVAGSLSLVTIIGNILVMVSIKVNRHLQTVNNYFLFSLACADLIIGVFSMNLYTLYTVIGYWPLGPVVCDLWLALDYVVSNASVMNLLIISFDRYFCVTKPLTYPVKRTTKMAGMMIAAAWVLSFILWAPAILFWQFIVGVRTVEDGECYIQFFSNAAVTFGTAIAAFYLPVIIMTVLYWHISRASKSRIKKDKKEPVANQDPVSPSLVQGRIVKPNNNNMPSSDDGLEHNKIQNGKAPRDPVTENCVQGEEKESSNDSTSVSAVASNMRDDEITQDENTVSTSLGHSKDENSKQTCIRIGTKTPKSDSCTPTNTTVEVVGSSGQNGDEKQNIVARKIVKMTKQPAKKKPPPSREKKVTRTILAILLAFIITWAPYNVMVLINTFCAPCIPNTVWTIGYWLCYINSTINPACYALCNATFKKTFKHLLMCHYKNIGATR
Method: as §1, §2

[4] = biological target: human muscarinic M3 receptor (Homo sapiens, UniProt P20309); test: Alphascreen Surefire phospho-ERK1/2 functional assay, M3; settings: for Emax: CHO, read-out: M3 % Emax cf. ACh, CHO cells stably expressing human M3; for Emax / M3 % Emax cf. ACh: Emax relative to ACh; for M3 % Emax cf. ACh / pEC50 M3: CHO cells stably expressing human M3; for pEC50 M3: phospho-ERK1/2
human muscarinic M3 receptor, sequence (P20309 whole entry): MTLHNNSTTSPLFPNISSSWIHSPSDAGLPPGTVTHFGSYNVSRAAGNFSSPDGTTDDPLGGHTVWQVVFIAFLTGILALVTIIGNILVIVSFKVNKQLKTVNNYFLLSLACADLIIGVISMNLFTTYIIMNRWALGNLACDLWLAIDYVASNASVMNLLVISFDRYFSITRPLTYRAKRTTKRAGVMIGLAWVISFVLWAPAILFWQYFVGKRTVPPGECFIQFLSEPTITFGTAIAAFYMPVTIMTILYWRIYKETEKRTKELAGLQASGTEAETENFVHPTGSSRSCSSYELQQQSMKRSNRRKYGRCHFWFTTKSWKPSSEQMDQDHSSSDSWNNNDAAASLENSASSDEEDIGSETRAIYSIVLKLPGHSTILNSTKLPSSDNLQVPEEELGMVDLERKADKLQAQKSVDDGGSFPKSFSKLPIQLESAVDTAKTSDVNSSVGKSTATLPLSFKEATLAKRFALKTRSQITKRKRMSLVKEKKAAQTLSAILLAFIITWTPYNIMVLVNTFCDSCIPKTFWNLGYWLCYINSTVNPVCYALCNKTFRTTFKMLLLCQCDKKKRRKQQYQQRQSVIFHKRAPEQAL
Method: as §1, §2

M1 % Emax cf. ACh [1]	EC50 [1]	M4 % Emax cf. ACh [2]	EC50 [2]	Emax [3]	EC50 [3]	EC50 [4]	Emax [4]	Emax [1]	Emax [2]	M2 % Emax cf. ACh [3]	M3 % Emax cf. ACh [4]	pEC50 M3 [4]	pEC50 M2 [3]	SMILES
(116) %	0.02 µM	(78) %	0.0398 µM	0%	> 20 µM	> 20 µM	7%	–	–	–	–	–	–	CCOC(=O)N1CCC2(CC(N3CCC4(CC3)CNC(=O)O4)C2)C1 (single isomer, unassigned) [4-3 Isomer 2]
–	0.631 µM	–	0.501 µM	41%	> 20 µM	> 20 µM	2%	104%	69%	–	–	–	–	CCCN1CC2(CCN(C3CC4(CCN(C(=O)OCC)C4)C3)CC2)OC1=O (single isomer, unassigned) [4-7 Isomer 2]
–	0.158 µM	–	0.0794 µM	7%	> 20 µM	> 20 µM	7%	114%	102%	–	–	–	–	CCOC(=O)N1CCC2(CC(N3CCC4(CC3)OC(=O)NC4C)C2)C1 (single isomer, unassigned) [4-11 Isomer 2]
(17) %	> 20 µM	(63) %	0.0794 µM	–	> 20 µM	> 20 µM	4%	–	–	(50) %	–	–	–	CCOC(=O)N1CCC2(CC(N3CCC4(CC3)OC(=O)NC4CC)C2)C1 (single isomer, unassigned) [4-12 Isomer 1]
(111) %	0.0251 µM	(118) %	0.00631 µM	–	> 6.31 µM	–	–	–	–	(20) %	(8) %	<4.7	–	CCOC(=O)N1CCC2(CC(N3CCC4(CC3)OC(=O)NC4CC)C2)C1 (single isomer, unassigned) [4-12 Isomer 3]
–	0.126 µM	–	0.0316 µM	54%	> 20 µM	> 20 µM	14%	114%	107%	–	–	–	–	CCOC(=O)N1CCC2(CC(N3CCC4(CC3)OC(=O)NC4CC(F)(F)F)C2)C1 (single isomer, unassigned) [4-17 Isomer 1 (racemic)]
(97) %	0.158 µM	(59) %	0.0316 µM	10%	> 20 µM	> 20 µM	4%	–	–	–	–	–	–	CCOC(=O)N1CCC2(CC(N3CCC4(CC3)OC(=O)N(C)C4CC)C2)C1 (single isomer, unassigned) [4-20 Isomer 3]
(95) %	0.2 µM	(80) %	0.0316 µM	–	> 20 µM	> 20 µM	1%	–	–	(3) %	–	–	–	CCOC(=O)N1CCC2(CC(N3CCC4(CC3)OC(=O)N(CC)C4CC)C2)C1 (single isomer, unassigned) [4-22 Isomer 3]
(104) %	0.2 µM	(113) %	0.0501 µM	–	–	–	–	–	–	(23) %	(2) %	<4.7	<4.7	CCOC(=O)N1CCC2(CC(N3CCC4(CC3)OC(=O)N(CC)C4CC)C2)C1 (single isomer, unassigned) [4-22 Isomer 4]
(88) %	0.316 µM	(32) %	0.0501 µM	8%	> 20 µM	> 20 µM	4%	–	–	–	–	–	–	CCCN1C(=O)OC2(CCN(C3CC4(CCN(C(=O)OCC)C4)C3)CC2)C1CC (single isomer, unassigned) [4-23 Isomer 3]
(96) %	0.316 µM	(109) %	0.01 µM	–	–	–	–	–	–	(8) %	(3) %	<4.7	<4.7	CCCN1C(=O)OC2(CCN(C3CC4(CCN(C(=O)OCC)C4)C3)CC2)C1CC (single isomer, unassigned) [4-23 Isomer 4]
–	0.501 µM	–	0.01 µM	53%	> 20 µM	> 20 µM	2%	84%	84%	–	–	–	–	CCOC(=O)N1CCC2(CC(N3CCC4(CC3)OC(=O)N(CC(C)C)C4CC)C2)C1 (single isomer, unassigned) [4-24 Isomer 2 (racemic)]
–	0.794 µM	–	0.0316 µM	4%	> 20 µM	> 20 µM	4%	66%	88%	–	–	–	–	CCOC(=O)N1CCC2(CC(N3CCC4(CC3)OC(=O)NC43CCCC3)C2)C1 (single isomer, unassigned) [4-31 Isomer 2]
–	2 µM	–	0.1 µM	2%	> 20 µM	> 20 µM	1%	34%	83%	–	–	–	–	CCN1C(=O)OC2(CCN(C3CC4(CCN(C(=O)OC)C4)C3)CC2)C1(C)C (single isomer, unassigned) [4-34 Isomer 2]
–	12.6 µM	–	0.0794 µM	52%	> 20 µM	> 20 µM	1%	35%	106%	–	–	–	–	CCCN1C(=O)OC2(CCN(C3CC4(CCN(C(=O)OC)C4)C3)CC2)C1(C)C (single isomer, unassigned) [4-36 Isomer 2]
(84) %	0.398 µM	(138) %	0.00501 µM	3%	> 20 µM	> 20 µM	7%	–	–	–	–	–	–	CCCN1C(=O)OC2(CCN(C3CC4(CCN(C(=O)OCC)C4)C3)CC2)C1(C)C (single isomer, unassigned) [4-37 Isomer 1]
(72) %	1 µM	–	0.0631 µM	–	> 20 µM	> 20 µM	–	–	97%	(7) %	(3) %	–	–	CCOC(=O)N1CCC2(CC(N3CCC4(CC3)OC(=O)N(CC(C)C)C4(C)C)C2)C1 (single isomer, unassigned) [4-38 Isomer 1]
(25) %	> 20 µM	(95) %	0.0316 µM	–	–	–	–	–	–	(3) %	(1) %	<4.7	<4.7	CCOC(=O)N1CCC2(CC(N3CCC4(CC3)OC(=O)N(CC(C)C)C4(C)C)C2)C1 (single isomer, unassigned) [4-38 Isomer 2]
–	0.794 µM	–	0.0631 µM	87%	> 20 µM	> 20 µM	8%	56%	88%	–	–	–	–	CCOC(=O)N1CCC2(CC(N3CCC4(CC3)OC(=O)N(CC3CC3)C4(C)C)C2)C1 (single isomer, unassigned) [4-39 Isomer 2]
